# Source: patent US10344014B2, “Amorphous form of tetracyclic compound” (Chugai Seiyaku Kabushiki Kaisha, priority 2014, dated 2019)
# Assays:
# [1] = Solubility by shake flask method, 37° C. (Example 6); format: physicochemical
# Protocol: Solubility of the amorphous form and form I crystals of 9-ethyl-6,6-dimethyl-8-(4-morpholin-4-yl-piperidin-1-yl)-11-oxo-6,11-dihydro-5H-benzo[b]carbazole-3-carbonitrilemonohydrochloride was examined using a shake flask method (37° C.).
# [2] = Solubility of compound A (form I crystals) in solvents (Example 2); format: physicochemical
# Protocol: Solubility of 9-ethyl-6,6-dimethyl-8-(4-morpholin-4-yl-piperidin-1-yl)-11-oxo-6,11-dihydro-5H-benzo[b]carbazole-3-carbonitrilemonohydrochloride (hereinafter, a compound A) to each solvent was evaluated.
# 5 mL of each of the solvents described in Table 5 was added to 5 mg of form I crystals of the compound A. When undissolved crystals were observed, the mixture was stirred at room temperature and the crystals were dissolved using ultrasound (step 1). After the processing described, when undissolved crystals were observed the mixture was further stirred in a water bath at about 50° C. (step 2).
# When the crystals were dissolved completely, the form I crystals of the compound A were further added (step 3).
# The procedure of the steps 1 to 3 was repeated.
# For CH2Cl2, the step 2 and the later step were performed at room temperature.
smiles,measurement,setting,value
"CCc1cc2c(cc1N1CCC(N3CCOCC3)CC1)C(C)(C)c1[nH]c3cc(C#N)ccc3c1C2=O.Cl [Form I crystal, 9-ethyl-6,6-dimethyl-8-(4-morpholin-4-yl-piperidin-1-yl)-11-oxo-6,11-dihydro-5H-benzo[b]carbazole-3-carbonitrilemonohydrochloride]",Solubility,"[1]; Acetate buffer pH 4.5, equilibration 1 hour",0.4 µg/mL
same,Solubility,"[1]; Acetate buffer pH 4.5, equilibration 24 hours, limit of quantitation 0.0004 mg/mL",<Lower than limit of
same,Solubility,"[1]; First solution for dissolution test (Japanese Pharmacopoeia, 16th edition), equilibration 1 hour",1.2 µg/mL
same,Solubility,"[1]; First solution for dissolution test (Japanese Pharmacopoeia, 16th edition), equilibration 24 hours",1.3 µg/mL
same,Solubility,"[1]; Phosphate buffer pH 8.0, equilibration 1 hour, limit of quantitation 0.0004 mg/mL",<Lower than limit of
same,Solubility,"[1]; Phosphate buffer pH 8.0, equilibration 24 hours, limit of quantitation 0.0004 mg/mL",<Lower than limit of
same,Solubility,"[1]; Simulated intestinal fluid (SIFsp), equilibration 1 hour, limit of quantitation 0.0004 mg/mL",<Lower than limit of
same,Solubility,"[1]; Simulated intestinal fluid (SIFsp), equilibration 24 hours, limit of quantitation 0.0004 mg/mL",<Lower than limit of
same,Solubility,"[1]; Solution for dissolution test (4% Triton-X100 added to the first solution for dissolution test), equilibration 1 hour",364.1 µg/mL
same,Solubility,"[1]; Solution for dissolution test (4% Triton-X100 added to the first solution for dissolution test), equilibration 24 hours",410.2 µg/mL
same,Solubility,"[1]; Water, equilibration 1 hour",28.6 µg/mL
same,Solubility,"[1]; Water, equilibration 24 hours",25.1 µg/mL
"CCc1cc2c(cc1N1CCC(N3CCOCC3)CC1)C(C)(C)c1[nH]c3cc(C#N)ccc3c1C2=O.Cl [compound A, 9-ethyl-6,6-dimethyl-8-(4-morpholin-4-yl-piperidin-1-yl)-11-oxo-6,11-dihydro-5H-benzo[b]carbazole-3-carbonitrilemonohydrochloride]",Solubility of compound A in solvent (dissolved or not),"[2]; 1,4-dioxane, 1 mg/mL, about 50° C. while stirring",N/N (N: not dissolved)
same,Solubility of compound A in solvent (dissolved or not),"[2]; 1,4-dioxane, 1 mg/mL, room temperature",N/N (N: not dissolved)
same,Solubility of compound A in solvent (dissolved or not),"[2]; 70% EtOH, 1 mg/mL, room temperature",Y/— (Y: dissolved)
same,Solubility of compound A in solvent (dissolved or not),"[2]; 70% EtOH, 2 mg/mL, room temperature",Y/— (Y: dissolved)
same,Solubility of compound A in solvent (dissolved or not),"[2]; 70% EtOH, 4 mg/mL, room temperature",Y/— (Y: dissolved)
same,Solubility of compound A in solvent (dissolved or not),"[2]; 70% EtOH, 6 mg/mL, about 50° C. while stirring",Y (Y: dissolved)
same,Solubility of compound A in solvent (dissolved or not),"[2]; 70% EtOH, 6 mg/mL, room temperature",N (N: not dissolved)
same,Solubility of compound A in solvent (dissolved or not),"[2]; 70% MeCN, 1 mg/mL, room temperature",Y/— (Y: dissolved)
same,Solubility of compound A in solvent (dissolved or not),"[2]; 70% MeCN, 2 mg/mL, room temperature",Y/— (Y: dissolved)
same,Solubility of compound A in solvent (dissolved or not),"[2]; 70% MeCN, 4 mg/mL, room temperature",Y/— (Y: dissolved)
same,Solubility of compound A in solvent (dissolved or not),"[2]; 70% MeCN, 6 mg/mL, room temperature",Y/— (Y: dissolved)
same,Solubility of compound A in solvent (dissolved or not),"[2]; 70% MeCN, 8 mg/mL, room temperature",Y/— (Y: dissolved)
same,Solubility of compound A in solvent (dissolved or not),"[2]; 70% MeCN, 10 mg/mL, about 50° C. while stirring, *formation of solids was observed inside the test tube",Y (Y: dissolved)
same,Solubility of compound A in solvent (dissolved or not),"[2]; 70% MeCN, 10 mg/mL, room temperature",N (N: not dissolved)
same,Solubility of compound A in solvent (dissolved or not),"[2]; 70% MeOH, 1 mg/mL, room temperature",Y/— (Y: dissolved)
same,Solubility of compound A in solvent (dissolved or not),"[2]; 70% MeOH, 2 mg/mL, room temperature",Y/— (Y: dissolved)
same,Solubility of compound A in solvent (dissolved or not),"[2]; 70% MeOH, 4 mg/mL, about 50° C. while stirring",Y (Y: dissolved)
same,Solubility of compound A in solvent (dissolved or not),"[2]; 70% MeOH, 4 mg/mL, room temperature",N (N: not dissolved)
same,Solubility of compound A in THF (dissolved or not),"[2]; 70% THF, 1 mg/mL, room temperature",Y/— (Y: dissolved)
same,Solubility of compound A in THF (dissolved or not),"[2]; 70% THF, 6 mg/mL, room temperature",Y/— (Y: dissolved)
same,Solubility of compound A in THF (dissolved or not),"[2]; 70% THF, 8 mg/mL, room temperature",Y/— (Y: dissolved)
same,Solubility of compound A in THF (dissolved or not),"[2]; 70% THF, 10 mg/mL, room temperature",Y/— (Y: dissolved)
same,Solubility of compound A in THF (dissolved or not),"[2]; 70% THF, 12 mg/mL, room temperature",Y/— (Y: dissolved)
same,Solubility of compound A in THF (dissolved or not),"[2]; 70% THF, 14 mg/mL, room temperature",Y/— (Y: dissolved)
same,Solubility of compound A in solvent (dissolved or not),"[2]; 70% acetone, 1 mg/mL, room temperature",Y/— (Y: dissolved)
same,Solubility of compound A in solvent (dissolved or not),"[2]; 70% acetone, 2 mg/mL, room temperature",Y/— (Y: dissolved)
same,Solubility of compound A in solvent (dissolved or not),"[2]; 70% acetone, 4 mg/mL, room temperature",Y/— (Y: dissolved)
same,Solubility of compound A in solvent (dissolved or not),"[2]; 70% acetone, 6 mg/mL, room temperature",Y/— (Y: dissolved)
same,Solubility of compound A in solvent (dissolved or not),"[2]; 70% acetone, 8 mg/mL, about 50° C. while stirring",Y (Y: dissolved)
same,Solubility of compound A in solvent (dissolved or not),"[2]; 70% acetone, 8 mg/mL, room temperature",N (N: not dissolved)
same,Solubility of compound A in THF (dissolved or not),"[2]; 80% THF, 1 mg/mL, room temperature",Y/— (Y: dissolved)
same,Solubility of compound A in THF (dissolved or not),"[2]; 80% THF, 4 mg/mL, room temperature",Y/— (Y: dissolved)
same,Solubility of compound A in THF (dissolved or not),"[2]; 80% THF, 6 mg/mL, room temperature",Y/— (Y: dissolved)
same,Solubility of compound A in THF (dissolved or not),"[2]; 80% THF, 8 mg/mL, room temperature",Y/— (Y: dissolved)
same,Solubility of compound A in THF (dissolved or not),"[2]; 80% THF, 10 mg/mL, room temperature",Y/— (Y: dissolved)
same,Solubility of compound A in THF (dissolved or not),"[2]; 80% THF, 12 mg/mL, room temperature",Y/— (Y: dissolved)
same,Solubility of compound A in THF (dissolved or not),"[2]; 90% THF, 1 mg/mL, room temperature",Y/— (Y: dissolved)
same,Solubility of compound A in THF (dissolved or not),"[2]; 90% THF, 3 mg/mL, room temperature",Y/— (Y: dissolved)
same,Solubility of compound A in THF (dissolved or not),"[2]; 90% THF, 5 mg/mL, about 50° C. while stirring",N/N (N: not dissolved)
same,Solubility of compound A in THF (dissolved or not),"[2]; 90% THF, 5 mg/mL, room temperature",N/N (N: not dissolved)
same,Solubility of compound A in THF (dissolved or not),"[2]; 100% THF, 1 mg/mL, about 50° C. while stirring",N/N (N: not dissolved)
same,Solubility of compound A in THF (dissolved or not),"[2]; 100% THF, 1 mg/mL, room temperature",N/N (N: not dissolved)
same,Solubility of compound A in solvent (dissolved or not),"[2]; CH2Cl2, 1 mg/mL, room temperature",N/— (N: not dissolved)
same,Solubility of compound A in solvent (dissolved or not),"[2]; DMSO, 1 mg/mL, room temperature",Y/— (Y: dissolved)
same,Solubility of compound A in solvent (dissolved or not),"[2]; DMSO, 2 mg/mL, room temperature",Y/— (Y: dissolved)
same,Solubility of compound A in solvent (dissolved or not),"[2]; DMSO, 4 mg/mL, about 50° C. while stirring",Y (Y: dissolved)
same,Solubility of compound A in solvent (dissolved or not),"[2]; DMSO, 4 mg/mL, room temperature",N (N: not dissolved)
same,Solubility of compound A in solvent (dissolved or not),"[2]; EtOAc, 1 mg/mL, about 50° C. while stirring",N/N (N: not dissolved)
same,Solubility of compound A in solvent (dissolved or not),"[2]; EtOAc, 1 mg/mL, room temperature",N/N (N: not dissolved)
same,Solubility of compound A in solvent (dissolved or not),"[2]; t-BuOH, 1 mg/mL, about 50° C. while stirring",N/N (N: not dissolved)
same,Solubility of compound A in solvent (dissolved or not),"[2]; t-BuOH, 1 mg/mL, room temperature",N/N (N: not dissolved)
